{
  "source": "patent US20180228823A1",
  "about": "“ANTI-DIABETIC EFFECTS OF GYPENOSIDE 75” (INTELLIGENT SYNTHETIC BIOLOGY CENTER, priority 2016, published 2018)",
  "assay_type_in_all_cases": "cell-based",
  "key": {"INS-1 cells [1]": {"tested_on": "INS-1 cells", "assay": "Insulin secretion of INS-1 cells measured by ELISA", "conditions": "10 μM, 2 hours", "procedure": "In order to confirm the effect of gypenoside 75 on an increase in insulin secretion, the amount of insulin secreted after treatment with gypenoside 75 was measured. Specifically, in order to confirm the effect of gypenoside 75 on an increase in insulin secretion, INS-1 cells, which are insulin-secreting cells, were cultured in a cell incubator (37° C., 5% CO2, RPMI culture medium, 10% FBS). The cells were treated with each of 10 μM of gypenoside 75, ginsenoside F1, ginsenoside Rg3, ginsenoside Rb2, and ginsenoside Rb3 for 2 hours, and the amounts of insulin secreted after the treatments were then measured via the ELISA method."}, "INS-1 cells [2]": {"tested_on": "INS-1 cells", "assay": "Mitochondrial membrane potential by TMRM staining and FACS in INS-1 cells", "conditions": "10 μM, 2 hours, TMRM staining, FACS", "procedure": "(§1) If mitochondrial function is impaired, it may cause diabetes mellitus by interfering with insulin signaling. Accordingly, in order to confirm the effect of gypenoside 75 on the activation of the mitochondrial function, after gypenoside 75 was treated, an increased amount of ATP and mitochondrial membrane potentials were measured. Specifically, in order to confirm the effect of gypenoside 75 on the activation of the mitochondrial function, INS-1 cells, which are insulin-secreting cells, were cultured in a cell incubator (37° C., 5% CO2, RPMI culture medium, 10% FBS). The cells were treated with 10 μM of gypenoside 75 for 2 hours, and the amount of ATP and mitochondrial membrane potentials inside the cells were then measured. To measure the amount of intracellular ATP, the INS-1 cells treated with gypenoside 75 were lysed through freezing-thawing and ultrasonication methods. The cell lysates were mixed with luciferase and luciferin to induce fluorescence. As the activation of the luciferase and fluorescence induced thereby depend on the amount of ATP, the degree of fluorescence was measured with a fluorometer to determine the amount of ATP. To measure the mitochondrial membrane potential, the INS-1 cells treated with gypenoside 75 were then stained with TMRM, and the degree of the staining of each cell was measured using a FACS instrument. As the mitochondrial membrane potential increases, the degree of staining by TMRM increases."}, "INS-1 cells [3]": {"tested_on": "INS-1 cells", "assay": "Intracellular ATP amount by luciferase/luciferin assay in INS-1 cells", "conditions": "10 μM, 2 hours, luciferase", "procedure": "as §1"}},
  "data": [
    {"smiles": "CC(C)=CCC[C@](C)(O[C@@H]1O[C@H](CO)[C@@H](O)[C@H](O)[C@H]1O)[C@H]1CC[C@]2(C)[C@@H]1[C@H](O)C[C@@H]1[C@@]3(C)CC[C@H](O)C(C)(C)[C@@H]3[C@@H](O)C[C@]12C", "note": "[ginsenoside F1]", "values": [
      {"measurement": "increase of the amount of insulin secreted compared to control group (DMSO)", "setting": "INS-1 cells [1]", "value": 50, "unit": "%"},
      {"measurement": "increase of mitochondrial membrane potential compared to control group (DMSO)", "setting": "INS-1 cells [2]", "value": "about 20%"},
      {"measurement": "increase of the amount of intracellular ATP compared to control group (DMSO)", "setting": "INS-1 cells [3]", "value": "about 40%"}
    ]},
    {"smiles": "CC(C)=CCC[C@](C)(O[C@@H]1O[C@H](CO[C@@H]2OC[C@H](O)[C@H](O)[C@H]2O)[C@@H](O)[C@H](O)[C@H]1O)[C@H]1CC[C@]2(C)[C@@H]1[C@H](O)C[C@@H]1[C@@]3(C)CC[C@H](O[C@@H]4O[C@H](CO)[C@@H](O)[C@H](O)[C@H]4O[C@@H]4O[C@H](CO)[C@@H](O)[C@H](O)[C@H]4O)C(C)(C)[C@@H]3CC[C@]12C", "note": "[ginsenoside Rb2]", "values": [
      {"measurement": "increase of the amount of insulin secreted compared to control group (DMSO)", "setting": "INS-1 cells [1]", "value": 50, "unit": "%"},
      {"measurement": "increase of mitochondrial membrane potential compared to control group (DMSO)", "setting": "INS-1 cells [2]", "value": "about 20%"},
      {"measurement": "increase of the amount of intracellular ATP compared to control group (DMSO)", "setting": "INS-1 cells [3]", "value": "about 40%"}
    ]},
    {"smiles": "CC(C)=CCC[C@](C)(O[C@@H]1O[C@H](CO[C@@H]2OC[C@@H](O)[C@H](O)[C@H]2O)[C@@H](O)[C@H](O)[C@H]1O)[C@H]1CC[C@]2(C)[C@@H]1[C@H](O)C[C@@H]1[C@@]3(C)CC[C@H](O[C@@H]4O[C@H](CO)[C@@H](O)[C@H](O)[C@H]4O[C@@H]4O[C@H](CO)[C@@H](O)[C@H](O)[C@H]4O)C(C)(C)[C@@H]3CC[C@]12C", "note": "[ginsenoside Rb3]", "values": [
      {"measurement": "increase of the amount of insulin secreted compared to control group (DMSO)", "setting": "INS-1 cells [1]", "value": 50, "unit": "%"},
      {"measurement": "increase of mitochondrial membrane potential compared to control group (DMSO)", "setting": "INS-1 cells [2]", "value": "about 20%"},
      {"measurement": "increase of the amount of intracellular ATP compared to control group (DMSO)", "setting": "INS-1 cells [3]", "value": "about 40%"}
    ]},
    {"smiles": "CC(C)=CCC[C@](C)(O)[C@H]1CC[C@]2(C)[C@@H]1[C@H](O)C[C@@H]1[C@@]3(C)CC[C@H](O[C@@H]4O[C@H](CO)[C@@H](O)[C@H](O)[C@H]4O[C@@H]4O[C@H](CO)[C@@H](O)[C@H](O)[C@H]4O)C(C)(C)[C@@H]3CC[C@]12C", "note": "[ginsenoside Rg3]", "values": [
      {"measurement": "increase of the amount of insulin secreted compared to control group (DMSO)", "setting": "INS-1 cells [1]", "value": 50, "unit": "%"},
      {"measurement": "increase of mitochondrial membrane potential compared to control group (DMSO)", "setting": "INS-1 cells [2]", "value": "about 20%"},
      {"measurement": "increase of the amount of intracellular ATP compared to control group (DMSO)", "setting": "INS-1 cells [3]", "value": "about 40%"}
    ]},
    {"smiles": "CC(C)=CCC[C@](C)(O[C@@H]1O[C@H](CO[C@@H]2O[C@H](CO)[C@@H](O)[C@H](O)[C@H]2O)[C@@H](O)[C@H](O)[C@H]1O)[C@H]1CC[C@]2(C)[C@@H]1[C@H](O)C[C@@H]1[C@@]3(C)CC[C@H](O)C(C)(C)[C@@H]3CC[C@]12C", "note": "[gypenoside 75]", "values": [
      {"measurement": "increase of the amount of insulin secreted compared to control group (DMSO)", "setting": "INS-1 cells [1]", "value": "about 110%"},
      {"measurement": "increase of mitochondrial membrane potential compared to control group (DMSO)", "setting": "INS-1 cells [2]", "value": "about 40%"},
      {"measurement": "increase of the amount of intracellular ATP compared to control group (DMSO)", "setting": "INS-1 cells [3]", "value": 50, "unit": "%"}
    ]}
  ]
}
